From ChEMBL document CHEMBL1201862, “PubChem BioAssay data set” (2004) come the findings set out here.

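In this assay, cells in 96-well plates receive the compound at five concentrations for 48 hours. Endpoints are linearly interpolated between the surrounding concentrations. GI50 = concentration required for 50% inhibition of growth.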 Calls of active or inactive are those of the source. No stated cut-off is given here; in the data, active = GI50 up to about 1.1 µM and inactive = higher.

Test systems include OVCAR-8; A498; SNB-75; 786-0; NCI-H23; NCI-H522; K562; MDA-MB-435; HOP-62; OVCAR-5; MCF7; NCI-H460; HCT-15; RXF 393; KM12; LOX IMVI; M14; SK-OV-3; MOLT-4; HL-60.
Assay in all cases: inhibition of tumour cell growth, NCI panel, 48 h

With `c1cc2c(cc1C(N1CCNCC1)N1CCNCC1)OCO2`, the GI50 in the assay on OVCAR-8, in the assay on A498, in the assay on SNB-75, in the assay with 786-0, in the assay on NCI-H23 and in the assay with NCI-H522 was > 100 µM (inactive) throughout. The GI50 is 2.42 µM (inactive) with K562; > 100 µM (inactive) in the assay with MDA-MB-435; > 100 µM (inactive) with HOP-62; > 100 µM (inactive) with OVCAR-5; > 100 µM (inactive) in the assay on MCF7; > 100 µM (inactive) with NCI-H460. The GI50 in the assay on HCT-15 is greater than 100 µM; in the assay with RXF 393, > 100 µM (inactive); in the assay on KM12 it was > 100 µM (inactive); with LOX IMVI, > 100 µM (inactive); with M14, > 100 µM (inactive); in the assay on SK-OV-3, > 100 µM (inactive).

For `COc1ccc(OC)c([N+](=O)[O-])c1-c1nc2sc(C)cn2c1/C=N/N=C(N)N`, the GI50 is 25.7 µM (inactive) in the assay with OVCAR-8; 34.7 µM (inactive) in the assay with A498; < 0.01 µM (active) in the assay on MOLT-4; 44.3 µM (inactive) in the assay with 786-0; 22.8 µM (inactive) in the assay on NCI-H23; 20 µM (inactive) in the assay with NCI-H522. Further, the GI50 in the assay on K562 is 2.49 µM (inactive); in the assay with MDA-MB-435, 20.1 µM (inactive); in the assay on HOP-62, 43.5 µM (inactive); with OVCAR-5, 51.4 µM (inactive); in the assay with MCF7, 15.1 µM (inactive); in the assay on NCI-H460, 29.6 µM (inactive). The GI50 in the assay on HCT-15 was greater than 100 µM; with RXF 393, 28.2 µM (inactive); with KM12 it was 20.5 µM (inactive); in the assay with LOX IMVI, 70.1 µM (inactive); in the assay with M14, 32.8 µM (inactive).

As for `O=[N+]([O-])C(C(Cl)=C(Cl)Cl)=C(n1cncn1)n1cncn1`, the GI50 in the assay on OVCAR-8 was 19.2 µM (inactive); in the assay with A498, > 100 µM (inactive); with MOLT-4, > 33 µM (inactive); in the assay with SNB-75 it was > 44.2 µM (inactive); in the assay on 786-0, 18.6 µM (inactive); in the assay on NCI-H23 it was 25.6 µM (inactive). Moreover, the GI50 is 14 µM (inactive) in the assay on NCI-H522; 30.8 µM (inactive) in the assay with MDA-MB-435; > 75.2 µM (inactive) in the assay on HOP-62; 15.6 µM (inactive) in the assay with OVCAR-5; 25.6 µM (inactive) in the assay with MCF7; > 75.5 µM (inactive) with NCI-H460. The GI50 with HCT-15 was 17.8 µM; in the assay with RXF 393, 14.6 µM (inactive); in the assay with KM12, 50.4 µM (inactive); with LOX IMVI, 17.7 µM (inactive); in the assay with M14, 31.4 µM (inactive); in the assay with SK-OV-3 it was > 100 µM (inactive).

Turning to `CN(C)c1ccc(/C(Br)=C2\OC(=O)c3ccccc32)cc1`, the GI50 was > 100 µM (inactive) in the assay on OVCAR-8; > 100 µM (inactive) with A498; 37.2 µM (inactive) in the assay with MOLT-4; 80.7 µM (inactive) in the assay on SNB-75; > 100 µM (inactive) with 786-0; > 100 µM (inactive) with NCI-H23. Besides, the GI50 in the assay on HL-60 was 34 µM (inactive); in the assay on K562, 59.6 µM (inactive); with MDA-MB-435 it was 36.1 µM (inactive); with HOP-62 it was > 100 µM (inactive); in the assay on OVCAR-5, 2.95 µM (inactive); in the assay on MCF7, 0.759 µM (active). For the same compound, the GI50 was > 100 µM (inactive) with NCI-H460; 87.3 µM in the assay with HCT-15; 39.2 µM (inactive) with KM12; > 100 µM (inactive) in the assay with LOX IMVI; > 100 µM (inactive) in the assay on M14; > 100 µM (inactive) in the assay on SK-OV-3.

Take `Cc1cc(N2CCOCC2)nc2ccc(Cc3ccc4nc(N5CCOCC5)cc(C)c4c3)cc12`: the GI50 in the assay on OVCAR-8 was 57.5 µM (inactive); in the assay with A498, 59.4 µM (inactive); with MOLT-4, 28.8 µM (inactive); in the assay with SNB-75, 35.2 µM (inactive); in the assay with 786-0 it was 32 µM (inactive); with NCI-H23, 54 µM (inactive). The GI50 is 26.5 µM (inactive) with NCI-H522; 27 µM (inactive) with K562; 43.3 µM (inactive) with MDA-MB-435; > 100 µM (inactive) in the assay on HOP-62; > 100 µM (inactive) in the assay on OVCAR-5; 37.8 µM (inactive) in the assay with MCF7. The GI50 was 26.7 µM (inactive) in the assay with NCI-H460; 41.8 µM in the assay with HCT-15; 25.9 µM (inactive) with RXF 393; > 100 µM (inactive) with KM12; 32.4 µM (inactive) in the assay on LOX IMVI; 41.1 µM (inactive) in the assay with M14. In the assay on SK-OV-3, the GI50 was > 100 µM (inactive).

Regarding `OCCN(C1=NCCN1)/[N+](=C/c1ccc(Cl)cc1)[CH-]c1ccc(Cl)cc1`, the GI50 is > 100 µM (inactive) in the assay with OVCAR-8; 26.5 µM (inactive) in the assay on MOLT-4; > 100 µM (inactive) in the assay with SNB-75; > 100 µM (inactive) with 786-0; > 100 µM (inactive) with NCI-H23; 84.3 µM (inactive) in the assay on NCI-H522. Moreover, the GI50 with K562 is 41.7 µM (inactive); in the assay on MDA-MB-435, > 100 µM (inactive); in the assay with HOP-62, > 100 µM (inactive); in the assay with OVCAR-5, > 100 µM (inactive); in the assay with MCF7, > 100 µM (inactive); with NCI-H460, > 100 µM (inactive). Moreover, the GI50 in the assay on HCT-15 was 61.8 µM; with RXF 393 it was 15.5 µM (inactive); in the assay on KM12, > 100 µM (inactive); in the assay on LOX IMVI it was 51.6 µM (inactive); in the assay on M14, 83.9 µM (inactive); with SK-OV-3, > 100 µM (inactive).

Consider `CN(C)CCn1c(=O)nc2c3c(c([N+](=O)[O-])ccc31)Nc1ccc(O)cc1-2`, for which the GI50 in the assay with OVCAR-8 was 1.82 µM (inactive); with A498, 6.32 µM (inactive); in the assay on MOLT-4 it was 0.0638 µM (active); in the assay on SNB-75, 6.28 µM (inactive); in the assay with 786-0, 1.67 µM (inactive); with NCI-H23, 5.46 µM (inactive). For the same compound, the GI50 is 1.43 µM (inactive) in the assay with NCI-H522; 2.41 µM (inactive) in the assay on K562; 10.4 µM (inactive) in the assay on MDA-MB-435; 2.47 µM (inactive) with HOP-62; 15.1 µM (inactive) with OVCAR-5; 1.32 µM (inactive) in the assay on MCF7. For the same compound, the GI50 in the assay with NCI-H460 is 0.977 µM (active); in the assay on HCT-15, 16.7 µM; in the assay with RXF 393, 1.63 µM (inactive); in the assay with KM12, 5.47 µM (inactive); with LOX IMVI it was 1.27 µM (inactive); with M14 it was 13.4 µM (inactive). Besides, the GI50 in the assay on SK-OV-3 is 15.3 µM (inactive).

On to `N=C(N)N/N=C/c1ccc(O)c(C(=O)O)c1`, for which the GI50 in the assay on OVCAR-8 was > 100 µM (inactive); in the assay with A498 it was > 100 µM (inactive); in the assay on MOLT-4, > 100 µM (inactive); in the assay with SNB-75, 3.22 µM (inactive); in the assay with 786-0, > 100 µM (inactive); with NCI-H23, > 100 µM (inactive). The GI50 in the assay with NCI-H522, in the assay on K562, in the assay with MDA-MB-435, in the assay on HOP-62, in the assay with OVCAR-5 and in the assay with MCF7 was > 100 µM (inactive) each time. In addition, the GI50 in the assay with NCI-H460 is > 100 µM (inactive); in the assay on HCT-15 it was greater than 100 µM; with RXF 393, > 100 µM (inactive); with KM12, > 100 µM (inactive); in the assay with LOX IMVI, > 100 µM (inactive); in the assay on M14, > 100 µM (inactive). Moreover, in the assay on SK-OV-3, the GI50 was > 100 µM (inactive).

For `Cc1[nH]c2ccccc2c1C1=CC(=O)N(c2ccccc2)C1=O`, the GI50 with OVCAR-8 is 14.8 µM (inactive); in the assay with A498 it was 9.71 µM (inactive); in the assay on MOLT-4, 36.2 µM (inactive); with 786-0, 10.8 µM (inactive); in the assay with NCI-H23, 12.1 µM (inactive); in the assay with HL-60 it was 10.7 µM (inactive). Further, the GI50 in the assay with K562 was 6.37 µM (inactive); with MDA-MB-435 it was 15.6 µM (inactive); in the assay on HOP-62, 7.98 µM (inactive); in the assay on OVCAR-5, 23.1 µM (inactive); with MCF7, 5.28 µM (inactive); in the assay with NCI-H460, 14.6 µM (inactive). The GI50 was 7.76 µM in the assay on HCT-15; 6.67 µM (inactive) in the assay with RXF 393; 5.55 µM (inactive) in the assay with LOX IMVI; 13.6 µM (inactive) in the assay on M14; 34.3 µM (inactive) with SK-OV-3.

`O=C1CSc2nc3ccccc3n2/C=N\N1`: the GI50 in the assay on OVCAR-8, in the assay with A498, in the assay with MOLT-4, in the assay with 786-0, with NCI-H23 and in the assay with NCI-H522 was > 100 µM (inactive) throughout. The GI50 is > 100 µM (inactive) in the assay with K562; > 100 µM (inactive) in the assay on MDA-MB-435; > 100 µM (inactive) in the assay on OVCAR-5; > 100 µM (inactive) with MCF7; > 100 µM (inactive) in the assay with NCI-H460; greater than 100 µM in the assay with HCT-15. Also, the GI50 in the assay on RXF 393, in the assay with KM12, with LOX IMVI, with M14 and in the assay on SK-OV-3 was > 100 µM (inactive) in each case.

In the case of `OCC1C2CCC3(OCCO3)C12` (stereo not drawn), the GI50 in the assay on OVCAR-8 was > 100 µM (inactive); in the assay on MOLT-4, > 100 µM (inactive); with SNB-75, > 100 µM (inactive); with 786-0 it was > 100 µM (inactive); with NCI-H23, 18.2 µM (inactive); with NCI-H522, > 100 µM (inactive). For the same compound, the GI50 in the assay on K562, with MDA-MB-435, in the assay on HOP-62, in the assay with OVCAR-5, in the assay with MCF7 and in the assay with NCI-H460 was > 100 µM (inactive) in each case. Moreover, the GI50 in the assay on HCT-15 is greater than 100 µM; in the assay with RXF 393, > 100 µM (inactive); in the assay on KM12, > 100 µM (inactive); in the assay with LOX IMVI, > 100 µM (inactive); with M14 it was > 100 µM (inactive); with SK-OV-3, > 100 µM (inactive).
